We go through 7 compounds from PubChem BioAssay (NCI).

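Following 48 hours of exposure in 96-well plates, responses at five concentrations were used to interpolate endpoints linearly. GI50 is the concentration that inhibits growth by half. At the TGI there is no net growth.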

Among the test systems are HCC-2998 colon; HCT-15 colon; MCF7 breast; NCI-H23 lung; OVCAR-3 ovarian; OVCAR-4 ovarian; SF-268 CNS; SR leukemia; SW-620 colon; TK-10 renal.
Assay in all cases: NCI anticancer screen, dose series, 48 h

In the case of `Cc1cc(-c2ccco2)cc(C)c1/C=C/c1cncc(-c2nn[nH]n2)c1`, the GI50 with HCC-2998 colon, with HCT-15 colon, in the assay with MCF7 breast, in the assay with NCI-H23 lung, with OVCAR-3 ovarian and in the assay with OVCAR-4 ovarian was over 25 µM in each case. In addition, the GI50 in the assay with SF-268 CNS, in the assay with SR leukemia, with SW-620 colon and with TK-10 renal was over 25 µM each time. Moreover, the TGI in the assay on HCC-2998 colon, in the assay with HCT-15 colon, in the assay on MCF7 breast, in the assay with NCI-H23 lung, with OVCAR-3 ovarian and in the assay on OVCAR-4 ovarian was over 25 µM each time. Moreover, the TGI in the assay with SF-268 CNS, in the assay on SR leukemia, with SW-620 colon and with TK-10 renal was over 25 µM throughout.

For the compound `Cc1n(Cc2ccc3ccccc3n2)cc[n+]1Cc1ccc2ccccc2c1`, the GI50 in the assay on HCC-2998 colon is 0.819 µM; with HCT-15 colon, 20.4 µM; with MCF7 breast, 0.526 µM; in the assay with NCI-H23 lung, 0.935 µM; with OVCAR-3 ovarian, 0.515 µM; with OVCAR-4 ovarian, 0.342 µM. For the same compound, the GI50 in the assay on SF-268 CNS was 0.784 µM; in the assay with SR leukemia, 0.565 µM; in the assay on SW-620 colon it was 1.82 µM; in the assay on TK-10 renal it was 1.94 µM. The TGI in the assay on HCC-2998 colon is 7.24 µM; in the assay with HCT-15 colon, over 75.9 µM; in the assay on MCF7 breast, 6.08 µM; with NCI-H23 lung, 9.81 µM; in the assay on OVCAR-3 ovarian, 5.1 µM; in the assay with OVCAR-4 ovarian, 11.3 µM. Moreover, the TGI turned out to be 14 µM in the assay with SF-268 CNS, 3.24 µM with SR leukemia, 13.3 µM with SW-620 colon and 7.96 µM in the assay on TK-10 renal.

For `CN(c1ccc(NC(=O)NCCN2CCOCC2)cc1)c1ccnc(Nc2ccc(CS(C)(=O)=O)cc2)n1`, the GI50 in the assay with HCC-2998 colon is over 25 µM; in the assay with HCT-15 colon, over 25 µM; with MCF7 breast, over 21.7 µM; in the assay on NCI-H23 lung, over 25 µM; with OVCAR-3 ovarian, over 25 µM; in the assay with OVCAR-4 ovarian, 19.8 µM. Further, the GI50 with SF-268 CNS, in the assay with SR leukemia, in the assay on SW-620 colon and with TK-10 renal was over 25 µM each time. The TGI in the assay with HCC-2998 colon, in the assay with HCT-15 colon, in the assay on MCF7 breast, with NCI-H23 lung, in the assay on OVCAR-3 ovarian and in the assay on OVCAR-4 ovarian was over 25 µM each time. Further, the TGI with SF-268 CNS, in the assay on SR leukemia, with SW-620 colon and in the assay on TK-10 renal was over 25 µM each time.

For the compound `Oc1ccc(-c2[nH]c3ccccc3c2-c2nc3ccccc3o2)cc1`, the GI50 is 2.66 µM in the assay with HCC-2998 colon; 2.97 µM in the assay on HCT-15 colon; 2.83 µM in the assay with MCF7 breast; 2.26 µM in the assay on NCI-H23 lung; 3.05 µM in the assay on OVCAR-3 ovarian; 2.14 µM with OVCAR-4 ovarian. Also, the GI50 in the assay on SF-268 CNS was 2.89 µM; with SR leukemia, 4.78 µM; in the assay with SW-620 colon, 3.04 µM; with TK-10 renal, 5.49 µM. Also, the TGI in the assay with HCC-2998 colon was 7 µM; with HCT-15 colon, 13.1 µM; with MCF7 breast, 10.5 µM; in the assay with NCI-H23 lung, 9.88 µM; in the assay on OVCAR-3 ovarian, 9.8 µM; in the assay on OVCAR-4 ovarian it was 14.7 µM. Further, the TGI in the assay with SF-268 CNS was 12.9 µM; with SR leukemia it was 25.7 µM; in the assay with SW-620 colon, 13.4 µM; with TK-10 renal it was 16.8 µM.

For the compound `Cc1ccccc1CNc1c2ccccc2nc2ccccc12`, the GI50 with HCC-2998 colon was 1.73 µM; in the assay with HCT-15 colon it was 1.8 µM; in the assay on MCF7 breast, 1.84 µM; in the assay on NCI-H23 lung, 1.71 µM; in the assay on OVCAR-3 ovarian, 2.39 µM; with OVCAR-4 ovarian it was 1.92 µM. The GI50 is 2.67 µM in the assay on SF-268 CNS, 1.72 µM in the assay on SR leukemia, 1.77 µM in the assay with SW-620 colon and 2.78 µM in the assay with TK-10 renal. The TGI came out at 3.65 µM in the assay with HCC-2998 colon; 4.02 µM in the assay on HCT-15 colon; 4.78 µM with MCF7 breast; 4.24 µM with NCI-H23 lung; 5.93 µM in the assay on OVCAR-3 ovarian; 6.4 µM with OVCAR-4 ovarian. Moreover, the TGI in the assay on SF-268 CNS worked out at 9.33 µM; in the assay with SR leukemia it was 5.87 µM; with SW-620 colon, 5.64 µM; in the assay with TK-10 renal it was 11.7 µM.

As for `CC(C)C/C(=N\NC(=O)c1ccncc1)c1cc(Cl)ccc1O`, the GI50 is 0.27 µM in the assay on HCC-2998 colon; 0.0938 µM in the assay with HCT-15 colon; 0.484 µM with MCF7 breast; 0.449 µM with NCI-H23 lung; 0.204 µM in the assay on OVCAR-3 ovarian; 0.26 µM in the assay with OVCAR-4 ovarian. The GI50 is 0.399 µM in the assay on SF-268 CNS, 0.206 µM in the assay on SR leukemia, 0.677 µM in the assay with SW-620 colon and 0.348 µM with TK-10 renal. Besides, the TGI is 98.9 µM in the assay with HCT-15 colon; 12.3 µM with MCF7 breast; 33.5 µM with NCI-H23 lung; 5.24 µM in the assay with OVCAR-3 ovarian; over 32.4 µM in the assay with OVCAR-4 ovarian; over 76.6 µM in the assay with SF-268 CNS. Further, the figures for the TGI with SR leukemia, in the assay on SW-620 colon and in the assay on TK-10 renal were 29 µM, over 100 µM and over 100 µM, respectively.

Regarding `Cc1nn2c(-c3nc4cc(Cl)c(Cl)cc4[nH]3)c(-c3ccc(F)cc3)nc2s1`, the GI50 in the assay on HCC-2998 colon was over 100 µM; in the assay with HCT-15 colon it was over 100 µM; in the assay with MCF7 breast it was 13.6 µM; with NCI-H23 lung, 21.7 µM; in the assay on OVCAR-3 ovarian, 3.26 µM; in the assay on OVCAR-4 ovarian, 0.257 µM. Also, the GI50 in the assay on SF-268 CNS is 3.15 µM; in the assay with SR leukemia it was 42.9 µM; with SW-620 colon, 10.2 µM; in the assay with TK-10 renal, 2.19 µM. Moreover, the TGI is over 100 µM in the assay on HCC-2998 colon; over 100 µM in the assay with HCT-15 colon; over 100 µM in the assay with MCF7 breast; over 61.4 µM in the assay with NCI-H23 lung; 11.1 µM in the assay on OVCAR-3 ovarian; 0.781 µM in the assay with OVCAR-4 ovarian. Further, the TGI is over 52.8 µM in the assay on SF-268 CNS, over 100 µM in the assay with SR leukemia, over 100 µM with SW-620 colon and 4.69 µM in the assay with TK-10 renal.
